Source: patent US20200093807A1, “NEW USE OF RIFAMYCIN-NITROIMIDAZOLE CONJUGATE MOLECULE” (TenNor Therapeutics Limited, priority 2017, published 2020)
Converted amounts (≈) assume the structure as drawn.

Legend:
[1] = system: Actinomyces naeslundii ATCC 12104; test: MIC, anaerobic agar dilution (CLSI); format: cell-based; conditions: ATCC12104, 35° C., 42-48 hours
[2] = system: Anaerococcus (Anaerococcus(prevotii)) ATCC 9321; test: MIC, anaerobic agar dilution (CLSI); format: cell-based; conditions: 35° C., 42-48 hours
[3] = system: Atopobium vaginae BAA-55; test: MIC, anaerobic agar dilution (CLSI); format: cell-based; conditions: Fannyhessea vaginae, BAA55; Atopobium vaginae BAA-55; anaerobic, 35° C., 42-48 hours; read-out: MIC
[4] = system: Bacteroides fragilis (QC) ATCC 25285; test: MIC, anaerobic agar dilution (CLSI); format: cell-based; conditions: ATCC25285, 35° C., 42-48 hours
[5] = system: Bacteroides fragilis (MET^R) MMX 3387; test: MIC, anaerobic agar dilution (CLSI); format: cell-based; conditions: Bacteroides fragilis (MET^R) MMX 3387; anaerobic, 35° C., 42-48 hours; read-out: MIC
[6] = system: Bacteroides thetaiotaomicron (MET^R) MMX 3409; test: microbe, parasite or virus in culture; format: cell-based; conditions: Bacteroides thetaiotaomicron (MET^R) MMX 3409; anaerobic, 35° C., 42-48 hours; read-out: MIC
[7] = system: Bacteroides gracilis ATCC 33236; test: MIC, anaerobic agar dilution (CLSI); format: cell-based; conditions: Campylobacter gracilis, ATCC33236; Bacteroides gracilis ATCC 33236; anaerobic, 35° C., 42-48 hours; read-out: MIC
[8] = system: Bacteroides uniformis MMX 1277; test: MIC, anaerobic agar dilution (CLSI); format: cell-based; conditions: MMX1277; Bacteroides uniformis MMX 1277; anaerobic, 35° C., 42-48 hours; read-out: MIC
[9] = system: Bacteroides vulgatus MMX 8348; test: MIC, anaerobic agar dilution (CLSI); format: cell-based; conditions: Phocaeicola vulgatus, MMX8348, 35° C., 42-48 hours
[10] = system: Bacteroides vulgatus (MET^R) MMX 3490; test: MIC, anaerobic agar dilution (CLSI); format: cell-based; conditions: Phocaeicola vulgatus; Bacteroides vulgatus (MET^R) MMX 3490; anaerobic, 35° C., 42-48 hours; read-out: MIC
[11] = system: Bacteroides ovatus (MET^R) MMX 3504; test: MIC, anaerobic agar dilution (CLSI); format: cell-based; conditions: 35° C., 42-48 hours
[12] = system: Bifidobacterium (breve) ATCC 15698; test: MIC, anaerobic agar dilution (CLSI); format: cell-based; conditions: ATCC15698, 35° C., 42-48 hours
[13] = system: Bifidobacterium longum ATCC 15707; test: MIC, anaerobic agar dilution (CLSI); format: cell-based; conditions: ATCC15707, 35° C., 42-48 hours
[14] = system: Clostridium sporogenes ATCC 19404; test: MIC, anaerobic agar dilution (CLSI); format: cell-based; conditions: ATCC19404, 35° C., 42-48 hours
[15] = system: Clostridium perfringens (MET^R) MMX 3521; test: microbe, parasite or virus in culture; format: cell-based
[16] = system: Eubacterium (rectale) ATCC 33656; test: MIC, anaerobic agar dilution (CLSI); format: cell-based; conditions: Agathobacter rectalis, ATCC33656, 35° C., 42-48 hours
[17] = system: Fusobacterium nucleatum ATCC 10953; test: MIC, anaerobic agar dilution (CLSI); format: cell-based; conditions: ATCC10953, 35° C., 42-48 hours
[18] = system: Fusobacterium nucleatum ATCC 25586; test: MIC, anaerobic agar dilution (CLSI); format: cell-based; conditions: ATCC25586, 35° C., 42-48 hours
[19] = system: Gardnerella vaginalis ATCC 14018; test: MIC, anaerobic agar dilution (CLSI); format: cell-based; conditions: ATCC14018, 35° C., 42-48 hours
[20] = system: Gardnerella vaginalis ATCC 49145; test: MIC, anaerobic agar dilution (CLSI); format: cell-based; conditions: ATCC49145, 35° C., 42-48 hours
[21] = system: Lactobacillus crispatus ATCC 33820; test: MIC, anaerobic agar dilution (CLSI); format: cell-based; conditions: ATCC33820; Lactobacillus crispatus ATCC 33820; anaerobic, 35° C., 42-48 hours; read-out: MIC
[22] = system: Lactobacillus gasseri ATCC 33323; test: MIC, anaerobic agar dilution (CLSI); format: cell-based; conditions: ATCC33323; Lactobacillus gasseri ATCC 33323; anaerobic, 35° C., 42-48 hours; read-out: MIC
[23] = system: Lactobacillus jensenii ATCC 25258; test: MIC, anaerobic agar dilution (CLSI); format: cell-based; conditions: ATCC25258; Lactobacillus jensenii ATCC 25258; anaerobic, 35° C., 42-48 hours; read-out: MIC
[24] = system: Mobiluncus (curtisii subsp. curtisii) ATCC 35241; test: MIC, anaerobic agar dilution (CLSI); format: cell-based; conditions: ATCC35241, 35° C., 42-48 hours
[25] = system: Mobiluncus (mulieris) ATCC 35243; test: MIC, anaerobic agar dilution (CLSI); format: cell-based; conditions: ATCC35243, 35° C., 42-48 hours
[26] = system: Peptococcus (niger) ATCC 27731; test: MIC, anaerobic agar dilution (CLSI); format: cell-based; conditions: ATCC27731, 35° C., 42-48 hours
[27] = system: Peptoniphilus asaccharolyticus ATCC 29743; test: MIC, anaerobic agar dilution (CLSI); format: cell-based; conditions: ATCC29743, 35° C., 42-48 hours
[28] = system: Peptostreptococcus (magnus) ATCC 14956; test: MIC, anaerobic agar dilution (CLSI); format: cell-based; conditions: Finegoldia magna, ATCC14956, 35° C., 42-48 hours
[29] = system: Peptostreptococcus anaerobius ATCC 27337; test: MIC, anaerobic agar dilution (CLSI); format: cell-based; conditions: ATCC27337, 35° C., 42-48 hours
[30] = system: Prevotella asaccharolytica (MET^R) MMX 3552; test: MIC, anaerobic agar dilution (CLSI); format: cell-based; conditions: 35° C., 42-48 hours
[31] = system: Prevotella bivia ATCC 29303; test: MIC, anaerobic agar dilution (CLSI); format: cell-based; conditions: ATCC29303, 35° C., 42-48 hours
[32] = system: Prevotella bivia MMX 3450; test: MIC, anaerobic agar dilution (CLSI); format: cell-based; conditions: MMX3450, 35° C., 42-48 hours
[33] = system: Prevotella bivia (MET^R) MMX 3454; test: MIC, anaerobic agar dilution (CLSI); format: cell-based; conditions: 35° C., 42-48 hours
[34] = system: Prevotella disiens MMX 3457; test: MIC, anaerobic agar dilution (CLSI); format: cell-based; conditions: MMX3457, 35° C., 42-48 hours
[35] = system: Prevotella disiens MMX 3446; test: MIC, anaerobic agar dilution (CLSI); format: cell-based; conditions: MMX3446, 35° C., 42-48 hours
[36] = system: Prevotella intermedia ATCC 25611; test: MIC, anaerobic agar dilution (CLSI); format: cell-based; conditions: ATCC25611, 35° C., 42-48 hours
[37] = system: Treponema denticola ATCC 35405; test: MIC, anaerobic agar dilution (CLSI); format: cell-based; conditions: ATCC35405, 35° C., 42-48 hours
[38] = system: Veionella parvula ATCC 17745; test: MIC, anaerobic agar dilution (CLSI); format: cell-based; conditions: 35° C., 42-48 hours
[39] = system: Gardnerella; test: MIC, agar dilution, Gardnerella; format: cell-based; conditions: Gardnerella as major BV bacteria
[40] = system: Escherichia coli; conditions: several bacteria such as Escherichia coli; U.S. Pat. No. 7,678,791 B2; cited from earlier work

`CO[C@H]1/C=C/O[C@@]2(C)Oc3c(C)c(O)c4c(c3C2=O)C2=NC3(CCN(CCn5c([N+](=O)[O-])cnc5C)CC3)NC2=C(NC(=O)/C(C)=C\C=C\[C@H](C)[C@H](O)[C@@H](C)[C@@H](O)[C@@H](C)[C@H](OC(C)=O)[C@@H]1C)C4=O` [Compound I, 4-deoxy-3,4-[2-spiro-[2-(2-methyl-5-nitro-imidazole-1-yl)ethyl]-piperidine-4-yl]-(1-hydrogen)-imidazo-(2,5-dihydro) rifamycin S] gave an MIC [1] of 0.001 µg/mL (≈ 0.00106 µM), an MIC [2] of 0.0005 µg/mL (≈ 0.00053 µM) and an MIC [3] of 0.03 µg/mL (≈ 0.0318 µM). It also gave an MIC [4] of 0.03 µg/mL (≈ 0.0318 µM), an MIC [5] of 0.015 µg/mL (≈ 0.0159 µM) and an MIC [6] of 0.03 µg/mL (≈ 0.0318 µM). For the same molecule, the MIC [7] was 0.5 µg/mL (≈ 0.53 µM), the MIC [8] was 0.03 µg/mL (≈ 0.0318 µM) and the MIC [9] was 0.03 µg/mL (≈ 0.0318 µM). For the same molecule, the MIC [10] was 0.03 µg/mL (≈ 0.0318 µM), the MIC [11] was 0.12 µg/mL (≈ 0.127 µM) and the MIC [12] was 0.015 µg/mL (≈ 0.0159 µM). The MIC [13] was 0.015 µg/mL (≈ 0.0159 µM), the MIC [14] was 0.015 µg/mL (≈ 0.0159 µM) and the MIC [15] was 2 µg/mL (≈ 2.12 µM). The MIC [16] was 0.0005 µg/mL (≈ 0.00053 µM), the MIC [17] was 0.12 µg/mL (≈ 0.127 µM) and the MIC [18] was 0.001 µg/mL (≈ 0.00106 µM). It also gave an MIC [19] of 0.004 µg/mL (≈ 0.00424 µM), an MIC [20] of 0.004 µg/mL (≈ 0.00424 µM) and an MIC [21] of 4 µg/mL (≈ 4.24 µM). It also gave an MIC [22] of 0.015 µg/mL (≈ 0.0159 µM), an MIC [23] of 0.008 µg/mL (≈ 0.00847 µM) and an MIC [24] of 0.002 µg/mL (≈ 0.00212 µM). For the same molecule, the MIC [25] was 0.001 µg/mL (≈ 0.00106 µM), the MIC [26] was 0.0005 µg/mL (≈ 0.00053 µM) and the MIC [27] was 0.008 µg/mL (≈ 0.00847 µM). For the same molecule, the MIC [28] was 0.0005 µg/mL (≈ 0.00053 µM), the MIC [29] was 0.002 µg/mL (≈ 0.00212 µM) and the MIC [30] was 0.008 µg/mL (≈ 0.00847 µM). For the same molecule, the MIC [31] was 0.015 µg/mL (≈ 0.0159 µM), the MIC [32] was 0.0005 µg/mL (≈ 0.00053 µM) and the MIC [33] was 0.015 µg/mL (≈ 0.0159 µM). It also gave an MIC [34] of 0.008 µg/mL (≈ 0.00847 µM), an MIC [35] of 0.015 µg/mL (≈ 0.0159 µM) and an MIC [36] of 0.0005 µg/mL (≈ 0.00053 µM). It also gave an MIC [37] of 0.002 µg/mL (≈ 0.00212 µM), an MIC [38] of 2 µg/mL (≈ 2.12 µM) and an MIC [39] of 0.004 µg/mL (≈ 0.00424 µM). For the same molecule, the antimicrobial activity [40] was “has antimicrobial activity”.
